{"source": "patent US20230270721A1", "about": "“INHIBITION OF BAX-MEDIATED CELL DEATH BY ELTROMBOPAG” (Albert Einstein College of Medicine, priority 2020, published 2023)", "key": {"BAX": {"molecular_target": "T1, BAX (Homo sapiens, UniProt Q07812)", "T1 construct": "Human full-length (1-192) wild-type BAX (Q07812); made in house; host or cells: E. coli BL21 (DE3) CodonPlus (DE3)-RIPL", "assay": "Competitive fluorescence polarization binding assay (FPA), BAX / FITC-BIM-SAHB", "details": "FITC-BIM-SAHB 25 nM", "procedure": "Fluorescence polarization assays (FPA) were performed as previously described (Gavathiotis, E., et al. Nat Chem Biol 8, 639-645 (2012)). Direct binding isotherms of BIM-SAHB were measured by incubated FITC-BIM-SAHB (25 nM) with serial dilutions of full-length BAX alone or in the presence of 0.5 or 1 µM EO. Competition binding assays were performed by titrating ED into BAX (150 nM) and FITC-BIM-SAHB (25 nM). Measurements were taken at 10-minute intervals over 60 minutes on a TECAN F200 PRO microplate reader. Reported curves represent 10-minute time point. KD values and IC50 were determined using GraphPad Prism nonlinear fit four-parameter agonist or antagonist versus response with restraints for 100% and 0% bound calculated by the mP of saturated BAX + FITC-BIM-SAHB and FITC-BIM-SAHB alone.\nTo test this hypothesis, a competitive fluorescence polarization assay (FPA) (Gavathiotis, E., et al. Nat Chem Biol 8, 639-645 (2012)) based on the interaction between BAX and fluorescently-labeled stapled BIM-BH3 peptide (FITC-BIM-SAHB) was used (Gavathiotis, E., et al. Nature 455, 1076-1081 (2008)). […] The IC50 and KD are consistent with a competitive binding mechanism of EO displacing FITC-BIM-SAHB from the N-terminal trigger site of BAX."}, "BAX R134E R145E": {"molecular_target": "T2, BAX R134E R145E (Homo sapiens, UniProt Q07812, R134E/R145E)", "T2 construct": "Human full-length (1-192) wild-type BAX (Q07812); made in house; host or cells: E. coli BL21 (DE3) CodonPlus (DE3)-RIPL", "T2 sequence (Q07812 whole entry R134E/R145E)": "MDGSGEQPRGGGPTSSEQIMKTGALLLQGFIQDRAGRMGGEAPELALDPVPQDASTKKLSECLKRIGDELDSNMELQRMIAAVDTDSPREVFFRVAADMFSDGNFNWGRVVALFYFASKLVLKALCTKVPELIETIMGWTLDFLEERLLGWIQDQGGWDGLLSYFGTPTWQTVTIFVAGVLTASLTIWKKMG", "assay": "Liposomal permeabilization assay, double mutant", "assay_type": "biochemical", "details": "250 nM BAX and 5 nM tBID; read-out: IC50, inhibition of liposomal release", "procedure": "Lipids (Avanti Polar Lipids) at the following ratio, phosphatidylcholine 48%, phosphatidylinositol 10%, dioleoyl phosphatidylserine 10%, phosphatidylethanolamine, 28%, and tetraoleoyl cardiolipin 4%, were mixed in a total of 1 mg, dried and resuspended in 10 mM HEPES, pH 7, 200 mM KCI, and 5 mM MgCl2 with 12.5 mM 8-aminonaphthalene-1,3,6-trisulfonic acid (ANTS) dye and 45 mM p-xylene-bis-pyridinium bromide (DPX) quencher (Molecular Probes) using a water bath sonicator. Liposomes were formed by extrusion of the suspension using Avanti Mini-Extruder (Cat # 610000) with polycarbonate membranes of 0.1 µm pore size (Avanti Polar Lipids). […] ANTS/DPX release was quantified based on the increase in fluorescence intensity that occurs when the ANTS fluorophore is separated from the DPX quencher upon release from the liposomes into solution. Fluorescence (λex = 355 nm and λem = 520 nm) was measured at 1 minute intervals at room temperature (22-25° C.) indicated using a Tecan Infinite M1000 plate reader. In the case of heat activation, reactions were set up as described in the absence of tBID or BIM, and experiments were recorded at 42° C. The percentage release of ANTS/DPX at any given time point was calculated as percentage release=((F-F0)/(F100-F0))(100), where F0 and F100 are baseline and maximal fluorescence, respectively. […]"}, "BAX-/-MEFs": {"system": "BAX-/-MEFs", "assay": "Caspase 3/7 assay, STS-induced apoptosis, MEFs expressing only BAK", "assay_type": "cell-based, mouse", "details": "3 µM STS, 6 hr", "from_the_text": "FIGS. 7A, 7B, 7C, 7D, 7E, and 7F are a set of diagrams showing that eltrombopag inhibits BAX translocation and BAX-mediated apoptosis in cells. […] BAX translocation is based on antibody-based detection of BAX and mitochondrial protein TOMM20. Representative confocal micrographs from three independent biological experiments. Scale bar, 20 µm. […] Data represent ±SEM of three independent biological replicates. Two-sided t test, ****P < 0.0001; ***P < 0.001; **P < 0.01; *P < 0.05; ns, P > 0.05. […] Actin and VDAC are loading controls for cytosolic and mitochondrial fractions, respectively. FIGS. 7D and 7E show a caspase 3/7 assay of BAK-/- mouse embryonic fibroblasts (MEFs) (FIG. 7D) and BAX-/-MEFs (FIG. 7E) in response to 3 µM STS and the presence or absence of various doses of EO for 6 hr. […]\nIt is important to note that THPO-receptor agonist activity of EO is highly specific to the human and chimpanzee THPO-receptors, making mouse cell lines ideal for studying EO modulation of BAX-dependent activity independent of THPO-mediated effects (Erickson-Miller, C. L. et al. Stem Cells 27, 424-430 (2009)). First, mitochondrial cytochrome c release, a hallmark of BAX activation and BAX-dependent apoptosis, was evaluated. […] Next, mitochondrial translocation of cytosolic BAX upon treatment with either BIM BH3 or staurosporine (STS) in BAK KO MEFs was evaluated."}}, "data": [{"smiles": "CC1=NN(c2ccc(C)c(C)c2)C(=O)/C1=N\\Nc1cccc(-c2cccc(C(=O)O)c2)c1O", "note": "[EO, eltrombopag]", "values": [{"measurement": "IC50", "setting": "BAX; BAX 150 nM, 10-minute time point, read-out: half-maximal inhibition IC50, competition of FITC-BIM-SAHB", "result": 207, "unit": "nM"}, {"measurement": "affinity of BAX for FITC-BIM-SAHB in the presence of EO", "setting": "BAX; direct binding titration of BAX, 0.5 or 1 µM EO", "result": "decreased affinity"}, {"measurement": "IC50", "setting": "BAX R134E R145E", "result": "> 10000", "unit": "nM"}, {"measurement": "STS-induced apoptosis mediated by caspase 3/7 activity", "setting": "BAX-/-MEFs", "result": "no effect"}]}]}
